Data from publication PMC8217340 (Phytotherapy research : PTR, 2021).
Like-named read-outs stand apart in the source and are kept apart here. Blank lines part the entries; values can stand above or below the compound they belong to.

Key:
[1] = for Cmax: NASH animals, silymarin 500 mg/kg oral gavage, plasma, geometric mean (90% CI)
human OATP1B1 [2] = molecular target: T1, human OATP1B1 (Homo sapiens, UniProt Q9Y6L6); assay type: cell-based
T1 sequence (Q9Y6L6 1-691): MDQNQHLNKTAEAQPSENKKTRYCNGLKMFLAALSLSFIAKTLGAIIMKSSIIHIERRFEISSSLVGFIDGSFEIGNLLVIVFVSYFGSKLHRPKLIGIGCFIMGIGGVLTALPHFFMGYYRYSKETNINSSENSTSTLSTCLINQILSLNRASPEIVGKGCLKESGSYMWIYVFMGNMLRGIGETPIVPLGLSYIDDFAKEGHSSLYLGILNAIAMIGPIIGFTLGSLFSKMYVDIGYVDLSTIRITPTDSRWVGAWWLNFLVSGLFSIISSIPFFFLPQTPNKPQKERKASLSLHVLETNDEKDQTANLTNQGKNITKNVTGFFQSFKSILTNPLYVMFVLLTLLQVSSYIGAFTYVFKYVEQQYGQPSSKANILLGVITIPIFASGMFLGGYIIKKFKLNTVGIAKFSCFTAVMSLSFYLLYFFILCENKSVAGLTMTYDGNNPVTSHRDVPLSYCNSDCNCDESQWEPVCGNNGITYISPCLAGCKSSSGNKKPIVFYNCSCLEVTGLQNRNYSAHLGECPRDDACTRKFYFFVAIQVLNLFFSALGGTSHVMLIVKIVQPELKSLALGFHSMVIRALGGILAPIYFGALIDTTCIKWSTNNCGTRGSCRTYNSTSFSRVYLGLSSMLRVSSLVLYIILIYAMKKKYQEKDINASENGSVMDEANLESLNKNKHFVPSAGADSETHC

human OATP1B3 [3] = molecular target: T2, human OATP1B3 (Homo sapiens, UniProt Q9NPD5); assay type: cell-based
T2 sequence (Q9NPD5 1-702): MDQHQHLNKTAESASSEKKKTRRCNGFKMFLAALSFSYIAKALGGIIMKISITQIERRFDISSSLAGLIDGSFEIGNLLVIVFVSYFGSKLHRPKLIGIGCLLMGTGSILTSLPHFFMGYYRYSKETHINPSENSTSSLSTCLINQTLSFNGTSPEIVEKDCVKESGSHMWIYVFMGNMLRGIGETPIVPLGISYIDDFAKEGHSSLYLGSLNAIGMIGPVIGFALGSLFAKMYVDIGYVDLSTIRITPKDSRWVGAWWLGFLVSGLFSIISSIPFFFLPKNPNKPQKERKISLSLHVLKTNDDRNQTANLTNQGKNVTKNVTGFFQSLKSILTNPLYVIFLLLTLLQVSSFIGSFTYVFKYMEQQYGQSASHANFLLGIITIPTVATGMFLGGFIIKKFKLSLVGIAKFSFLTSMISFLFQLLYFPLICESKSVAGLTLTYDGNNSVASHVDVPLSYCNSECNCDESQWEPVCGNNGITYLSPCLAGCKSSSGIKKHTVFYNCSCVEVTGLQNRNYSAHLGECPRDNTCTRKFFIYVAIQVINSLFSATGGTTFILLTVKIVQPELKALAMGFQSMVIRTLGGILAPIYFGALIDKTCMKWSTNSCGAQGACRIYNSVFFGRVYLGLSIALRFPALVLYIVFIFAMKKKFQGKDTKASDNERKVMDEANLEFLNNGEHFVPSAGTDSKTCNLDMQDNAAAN

[4] = human, in vivo; cited from earlier work
[5] = in vivo; cited from earlier work
human OATP1B1 [6] = molecular target: T1, human OATP1B1; assay type: cell-based; conditions: 5 μM flavonolignan, 5 minutes; uptake minus wild-type CHO cells
human OATP1B3 [7] = molecular target: T2, human OATP1B3; assay type: cell-based; conditions: 5 μM flavonolignan, 5 minutes; uptake minus wild-type CHO cells
human OATP2B1 = molecular target: T3, human OATP2B1 (Homo sapiens, UniProt O94956); assay type: cell-based; conditions: 5 μM flavonolignan, 5 minutes; for substrate for OATP2B1: uptake minus wild-type CHO cells
T3 sequence (O94956 1-709): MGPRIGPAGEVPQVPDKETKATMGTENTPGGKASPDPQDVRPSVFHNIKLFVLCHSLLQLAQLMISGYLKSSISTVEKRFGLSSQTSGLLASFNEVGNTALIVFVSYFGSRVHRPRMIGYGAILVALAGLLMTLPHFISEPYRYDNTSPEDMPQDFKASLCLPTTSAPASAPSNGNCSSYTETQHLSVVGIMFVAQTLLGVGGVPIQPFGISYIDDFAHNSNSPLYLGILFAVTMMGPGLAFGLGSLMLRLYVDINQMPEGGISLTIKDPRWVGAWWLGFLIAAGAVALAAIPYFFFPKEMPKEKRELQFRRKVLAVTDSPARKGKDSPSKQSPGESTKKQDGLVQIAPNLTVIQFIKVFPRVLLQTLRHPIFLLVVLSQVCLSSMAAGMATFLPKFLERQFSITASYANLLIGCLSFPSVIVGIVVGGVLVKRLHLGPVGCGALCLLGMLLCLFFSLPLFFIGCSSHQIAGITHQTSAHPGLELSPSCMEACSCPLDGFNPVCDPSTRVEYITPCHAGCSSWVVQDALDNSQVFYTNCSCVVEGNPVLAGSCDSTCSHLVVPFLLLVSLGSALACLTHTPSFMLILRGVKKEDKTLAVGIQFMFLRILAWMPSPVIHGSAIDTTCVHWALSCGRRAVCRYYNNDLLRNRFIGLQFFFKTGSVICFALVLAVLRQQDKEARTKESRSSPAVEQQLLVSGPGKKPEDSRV

UGT2B7 = conditions: ref Uchaipichat, 2018; cited from earlier work
[8] = read-out: average Cmax; NAFLD and HCV patients; ref Fried, 2012; Wah Kheong et al., 2017; cited from earlier work
[9] = assay type: in vivo, Sprague Dawley rats
[10] = assay type: in vivo, Sprague Dawley rats; conditions: 27 hours after pitavastatin gavage

substrate for OATP1B1 (human OATP1B1 [6]): substrates | substrate for OATP1B3 (human OATP1B3 [7]): substrates | substrate for OATP2B1 (human OATP2B1): substrates
Compound: COc1cc([C@@H]2Oc3cc([C@H]4Oc5cc(O)cc(O)c5C(=O)[C@@H]4O)ccc3O[C@H]2CO)ccc1O [SB, silybin B]

substrate for OATP1B1 (human OATP1B1 [6]): substrates | substrate for OATP1B3 (human OATP1B3 [7]): substrates | substrate for OATP2B1 (human OATP2B1): substrates
Compound: COc1cc([C@@H]2[C@H]3CO[C@@]4(O)C(=O)[C@@H]2C=C([C@H]2Oc5cc(O)cc(O)c5C(=O)[C@@H]2O)[C@@H]34)ccc1O [SD, silydianin]

substrate for OATP1B1 (human OATP1B1 [6]): substrates | substrate for OATP1B3 (human OATP1B3 [7]): substrates | substrate for OATP2B1 (human OATP2B1): substrates
Compound: COc1cc([C@H]2Oc3ccc([C@H]4Oc5cc(O)cc(O)c5C(=O)[C@@H]4O)cc3O[C@@H]2CO)ccc1O [IA, isosilybin A]

substrate for OATP1B1 (human OATP1B1 [6]): substrates | substrate for OATP1B3 (human OATP1B3 [7]): substrates | substrate for OATP2B1 (human OATP2B1): substrates
Compound: COc1cc([C@@H]2Oc3ccc([C@H]4Oc5cc(O)cc(O)c5C(=O)[C@@H]4O)cc3O[C@H]2CO)ccc1O [IB, isosilybin B]

substrate for OATP1B1 (human OATP1B1 [6]): substrates | substrate for OATP1B3 (human OATP1B3 [7]): substrates | substrate for OATP2B1 (human OATP2B1): substrates | plasma AUC of SA relative to that of SC ([1]; oral silymarin 500 mg/kg): 110 times
Compound: COc1cc([C@H]2Oc3cc([C@H]4Oc5cc(O)cc(O)c5C(=O)[C@@H]4O)ccc3O[C@@H]2CO)ccc1O [SA, silybin A]
Cmax [8]: 0.8 to 4.2 µM

silymarin effect on pitavastatin Cmax ([9]; 40-minute offset between pitavastatin and silymarin administration): no significant silymarin effect | increase of pitavastatin AUC0-27h by silymarin ([9]; NASH silymarin group vs NASH vehicle): 1.8 fold | increase of pitavastatin AUC0-27h by NASH alone ([9]; NASH vehicle compared to control vehicle): 2.9 fold | increase of pitavastatin AUC0-27h by the combination of silymarin and NASH ([9]; compared to the control vehicle group): 5.1 fold | increase of pitavastatin AUC0-27h by silymarin ([9]; control silymarin group vs control vehicle): 1.8 fold | increase of pitavastatin Cmax by NASH compared to control ([9]; in the absence of silymarin): 3.9 fold | increase of pitavastatin Cmax by NASH compared to control ([9]; in the presence of silymarin): 2.8 fold | liver pitavastatin content, NASH vs control groups [10]: not different | liver to plasma ratio in the NASH group [10]: decreased
Compound: O=C(O)C[C@H](O)C[C@H](O)/C=C/c1c(C2CC2)nc2ccccc2c1-c1ccc(F)cc1 [Pitavastatin, Pitavastatin calcium]

The remaining lines, values behind:

Compound: silybin A-7-O-β-D-glucuronide [S7G]
Cmax [1]: 12.6 µM

Compound: silymarin
leftward shift in IC50 for OATP1B1 (human OATP1B1 [2]): 2.8 fold | leftward shift in IC50 for OATP1B3 (human OATP1B3 [3]): 1.7 fold | adverse events [4]: no adverse events | safety of the dose [5]: safe

Compound: COc1cc(C2Oc3cc([C@H]4Oc5cc(O)cc(O)c5C(=O)[C@@H]4O)ccc3OC2CO)ccc1O (stereo partly shown) [silybin]
concentrations at which inhibition of UGT2B7 occurs (UGT2B7): 0.60 to 1.5 mM

Compound: COc1cc([C@@H]2Oc3c(O)cc([C@H]4Oc5cc(O)cc(O)c5C(=O)[C@@H]4O)cc3[C@H]2CO)ccc1O [SC, silychristin]
substrate for OATP1B1 (human OATP1B1 [6]): substrates | substrate for OATP1B3 (human OATP1B3 [7]): substrates | transport activity of OATP2B1 compared to SA (human OATP2B1): lower transport activity | substrate for OATP2B1 (human OATP2B1): substrates

Compound: silybin A-4”-O-β-D-glucuronide [S4G]
Cmax [1]: 12.6 µM
